{"source": "ChEMBL document CHEMBL1201862", "about": "“PubChem BioAssay data set” (2004)", "key": {"[1]": {"molecular_target": "Voltage-gated inwardly rectifying potassium channel KCNH2 (Homo sapiens, UniProt Q12809)", "sequence (Q12809 whole entry)": "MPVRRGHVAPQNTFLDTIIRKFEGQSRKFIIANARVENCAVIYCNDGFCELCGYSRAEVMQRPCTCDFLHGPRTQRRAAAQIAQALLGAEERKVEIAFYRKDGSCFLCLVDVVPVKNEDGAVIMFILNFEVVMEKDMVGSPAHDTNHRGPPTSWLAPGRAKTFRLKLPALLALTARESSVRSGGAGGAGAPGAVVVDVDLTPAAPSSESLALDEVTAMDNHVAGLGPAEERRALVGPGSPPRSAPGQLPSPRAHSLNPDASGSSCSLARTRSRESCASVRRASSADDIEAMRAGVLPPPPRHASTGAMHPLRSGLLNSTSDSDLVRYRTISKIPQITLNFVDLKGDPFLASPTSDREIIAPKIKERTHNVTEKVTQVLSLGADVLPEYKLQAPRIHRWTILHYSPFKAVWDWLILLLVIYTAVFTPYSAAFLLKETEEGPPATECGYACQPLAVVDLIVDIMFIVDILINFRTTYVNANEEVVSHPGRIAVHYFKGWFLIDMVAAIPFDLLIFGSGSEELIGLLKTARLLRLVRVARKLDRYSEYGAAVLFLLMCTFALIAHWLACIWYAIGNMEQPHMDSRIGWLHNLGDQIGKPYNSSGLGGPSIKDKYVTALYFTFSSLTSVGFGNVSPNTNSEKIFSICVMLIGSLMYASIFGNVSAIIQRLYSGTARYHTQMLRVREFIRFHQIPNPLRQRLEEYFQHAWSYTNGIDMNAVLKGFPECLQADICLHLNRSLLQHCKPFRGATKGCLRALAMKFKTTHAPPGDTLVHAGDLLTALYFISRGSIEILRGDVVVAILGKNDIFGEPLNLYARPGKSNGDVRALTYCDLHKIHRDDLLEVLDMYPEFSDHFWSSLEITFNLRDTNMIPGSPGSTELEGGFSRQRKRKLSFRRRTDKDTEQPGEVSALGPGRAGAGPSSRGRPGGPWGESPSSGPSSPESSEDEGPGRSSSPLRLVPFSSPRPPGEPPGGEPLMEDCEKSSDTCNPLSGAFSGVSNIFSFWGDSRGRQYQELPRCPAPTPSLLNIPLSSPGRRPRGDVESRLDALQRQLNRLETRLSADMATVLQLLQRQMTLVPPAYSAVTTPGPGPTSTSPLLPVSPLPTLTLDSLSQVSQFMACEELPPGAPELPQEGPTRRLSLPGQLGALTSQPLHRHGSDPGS", "settings": "Potency"}, "[2]": {"molecular_target": "DNA dC->dU-editing enzyme APOBEC-3A (Homo sapiens, UniProt P31941)", "sequence (P31941 whole entry)": "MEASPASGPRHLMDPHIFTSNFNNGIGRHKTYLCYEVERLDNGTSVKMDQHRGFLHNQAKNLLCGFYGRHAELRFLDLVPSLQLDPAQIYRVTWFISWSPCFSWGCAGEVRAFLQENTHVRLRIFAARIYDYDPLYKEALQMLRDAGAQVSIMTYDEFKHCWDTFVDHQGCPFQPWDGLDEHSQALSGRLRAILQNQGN", "experiment": "Dose Response confirmation of small molecule APOBEC3A DNA Deaminase Inhibitors via a fluorescence-based single-stranded DNA deaminase assay. [Related pubchem assays (depositor defined):AID493011, AID493024]", "assay_type": "functional"}, "[3]": {"molecular_target": "DNA dC->dU-editing enzyme APOBEC-3G (Homo sapiens, UniProt Q9HC16)", "sequence (Q9HC16 whole entry)": "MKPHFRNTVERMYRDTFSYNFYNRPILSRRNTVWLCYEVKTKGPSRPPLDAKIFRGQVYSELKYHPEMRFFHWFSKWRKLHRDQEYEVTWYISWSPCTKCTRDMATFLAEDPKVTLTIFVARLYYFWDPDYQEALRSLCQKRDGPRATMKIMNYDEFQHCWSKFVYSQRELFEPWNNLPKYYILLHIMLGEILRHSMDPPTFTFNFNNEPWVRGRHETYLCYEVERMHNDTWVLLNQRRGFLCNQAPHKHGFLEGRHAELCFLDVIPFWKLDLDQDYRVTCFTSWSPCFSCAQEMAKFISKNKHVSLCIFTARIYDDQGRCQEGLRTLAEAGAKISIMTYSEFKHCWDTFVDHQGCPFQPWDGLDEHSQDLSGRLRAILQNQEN", "assay_type": "functional"}, "[4]": {"molecular_target": "T1, Carboxy-terminal domain RNA polymerase II polypeptide A small phosphatase 1 (Homo sapiens, UniProt Q9GZU7)", "T1 sequence (Q9GZU7 whole entry)": "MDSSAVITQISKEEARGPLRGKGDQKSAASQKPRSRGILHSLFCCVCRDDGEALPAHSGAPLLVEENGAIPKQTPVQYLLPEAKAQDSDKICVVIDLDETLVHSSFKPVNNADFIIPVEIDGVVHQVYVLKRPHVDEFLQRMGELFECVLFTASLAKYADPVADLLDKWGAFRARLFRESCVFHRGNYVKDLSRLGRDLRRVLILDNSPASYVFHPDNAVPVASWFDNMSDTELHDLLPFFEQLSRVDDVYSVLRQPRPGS", "experiment": "CTDSP1 inhibitors, concentration-response, biochemical, absorbance readout, ultra-high-throughput screen actives (AID 540297)", "assay_type": "functional"}, "[5]": {"molecular_target": "Dual specificity tyrosine-phosphorylation-regulated kinase 1A (Rattus norvegicus, UniProt Q63470)", "assay_type": "biochemical, Homo sapiens"}, "[6]": {"molecular_target": "Large T antigen (Simian virus 40, UniProt P03070)", "sequence (P03070 whole entry)": "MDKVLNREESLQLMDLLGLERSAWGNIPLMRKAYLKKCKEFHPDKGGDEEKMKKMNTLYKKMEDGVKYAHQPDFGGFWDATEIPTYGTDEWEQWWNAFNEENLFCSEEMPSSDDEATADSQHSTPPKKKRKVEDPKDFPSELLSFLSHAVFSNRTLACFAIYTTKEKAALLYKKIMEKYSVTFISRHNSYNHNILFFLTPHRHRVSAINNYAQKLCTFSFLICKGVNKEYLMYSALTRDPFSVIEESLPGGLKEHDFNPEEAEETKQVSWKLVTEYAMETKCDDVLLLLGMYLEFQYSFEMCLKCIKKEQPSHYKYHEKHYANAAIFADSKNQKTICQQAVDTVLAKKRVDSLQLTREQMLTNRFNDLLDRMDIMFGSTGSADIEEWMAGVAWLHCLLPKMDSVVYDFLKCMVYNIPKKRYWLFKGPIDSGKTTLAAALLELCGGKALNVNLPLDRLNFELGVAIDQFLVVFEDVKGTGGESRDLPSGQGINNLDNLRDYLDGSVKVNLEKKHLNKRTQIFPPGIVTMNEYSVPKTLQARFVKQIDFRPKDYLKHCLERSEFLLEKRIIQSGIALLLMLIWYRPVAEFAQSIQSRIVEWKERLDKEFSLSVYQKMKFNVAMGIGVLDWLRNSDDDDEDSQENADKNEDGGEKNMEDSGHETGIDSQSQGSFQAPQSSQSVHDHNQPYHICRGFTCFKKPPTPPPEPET", "assay_type": "functional, Betapolyomavirus macacae"}, "[7]": {"molecular_target": "Glucose-6-phosphate 1-dehydrogenase (Homo sapiens, UniProt P11413)", "sequence (P11413 whole entry)": "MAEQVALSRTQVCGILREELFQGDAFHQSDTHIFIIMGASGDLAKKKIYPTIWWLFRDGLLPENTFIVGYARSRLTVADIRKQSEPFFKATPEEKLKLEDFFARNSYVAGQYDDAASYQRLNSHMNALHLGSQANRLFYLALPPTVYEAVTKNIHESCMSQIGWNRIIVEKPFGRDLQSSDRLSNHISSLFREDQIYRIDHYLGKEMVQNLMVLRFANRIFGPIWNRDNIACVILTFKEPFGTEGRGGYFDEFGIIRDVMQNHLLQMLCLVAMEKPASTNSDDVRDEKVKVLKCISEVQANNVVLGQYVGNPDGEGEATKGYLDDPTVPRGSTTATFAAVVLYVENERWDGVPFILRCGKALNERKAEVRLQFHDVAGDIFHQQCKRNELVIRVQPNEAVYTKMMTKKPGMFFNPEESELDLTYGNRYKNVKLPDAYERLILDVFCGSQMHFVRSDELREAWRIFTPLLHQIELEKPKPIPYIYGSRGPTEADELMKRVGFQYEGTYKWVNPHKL", "experiment": "inhibition of Homo sapiens G6PD, dose series – biochemical, fluorescence, selectivity assay for P. falciparum G6PD inhibitor project, dose response (AID 504792)", "assay_type": "functional"}, "[8]": {"experiment": "blockers of bursicon-stimulated LGR2 cAMP reporter – cell-based, HEK293, CRE-luciferase reporter, cherry pick, set 2, dose response (AID 743343);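 also: transfected cells were stimulated with diluted bursicon conditioned medium after compound addition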", "assay_type": "functional"}, "[9]": {"experiment": "blockade of melanocortin 4 receptor signaling – cell-based, plate reader, cherry pick, counter-screen for LGR2 antagonist project, dose response (AID 743444);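 also: transfected HEK 293 cells stimulated with alpha-MSH peptide; potency of inhibitors of the alpha-MSH evoked signal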", "assay_type": "functional"}, "[10]": {"test_system": "HEK293", "experiment": "EBV LMP1 TES2 canonical NF-kB signalling blockers – cell-based, HEK293, luciferase, cherry-pick, dose response (AID 588343)", "assay_type": "functional", "settings": "Homo sapiens"}, "[11]": {"molecular_target": "T2, Nucleotide-binding oligomerization domain-containing protein 1 (Homo sapiens, UniProt Q9Y239)", "T2 sequence (Q9Y239 whole entry)": "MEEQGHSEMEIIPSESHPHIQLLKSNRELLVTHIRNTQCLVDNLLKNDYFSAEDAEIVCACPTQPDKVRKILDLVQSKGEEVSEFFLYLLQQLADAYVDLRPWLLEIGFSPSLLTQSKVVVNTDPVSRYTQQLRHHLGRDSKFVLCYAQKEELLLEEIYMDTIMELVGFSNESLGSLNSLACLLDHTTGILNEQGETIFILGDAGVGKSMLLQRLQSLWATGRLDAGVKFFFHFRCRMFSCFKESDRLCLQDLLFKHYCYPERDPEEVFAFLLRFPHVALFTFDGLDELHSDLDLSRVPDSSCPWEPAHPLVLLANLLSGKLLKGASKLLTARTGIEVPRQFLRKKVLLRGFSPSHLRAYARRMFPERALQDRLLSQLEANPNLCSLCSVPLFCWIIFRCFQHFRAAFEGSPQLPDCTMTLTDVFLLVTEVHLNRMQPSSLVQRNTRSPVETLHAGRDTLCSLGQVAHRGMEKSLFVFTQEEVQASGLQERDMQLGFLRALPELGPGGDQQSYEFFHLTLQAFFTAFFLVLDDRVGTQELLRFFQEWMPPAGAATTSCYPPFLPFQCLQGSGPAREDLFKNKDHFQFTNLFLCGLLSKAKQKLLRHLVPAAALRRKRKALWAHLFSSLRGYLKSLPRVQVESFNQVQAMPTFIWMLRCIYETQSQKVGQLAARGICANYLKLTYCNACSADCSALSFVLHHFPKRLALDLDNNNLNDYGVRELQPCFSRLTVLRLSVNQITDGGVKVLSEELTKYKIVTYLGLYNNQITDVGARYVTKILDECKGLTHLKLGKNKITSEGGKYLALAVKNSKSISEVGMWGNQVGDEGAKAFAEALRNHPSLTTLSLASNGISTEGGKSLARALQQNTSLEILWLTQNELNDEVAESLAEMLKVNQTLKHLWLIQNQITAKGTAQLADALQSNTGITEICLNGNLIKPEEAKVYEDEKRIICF", "experiment": "blockers of NOD1 pathway activity – revised, SAR follow-up (AID 2333)", "assay_type": "functional"}, "[12]": {"molecular_target": "T3, Heat shock factor protein 1 (Mus musculus, UniProt P38532)", "T3 sequence (P38532 whole entry)": "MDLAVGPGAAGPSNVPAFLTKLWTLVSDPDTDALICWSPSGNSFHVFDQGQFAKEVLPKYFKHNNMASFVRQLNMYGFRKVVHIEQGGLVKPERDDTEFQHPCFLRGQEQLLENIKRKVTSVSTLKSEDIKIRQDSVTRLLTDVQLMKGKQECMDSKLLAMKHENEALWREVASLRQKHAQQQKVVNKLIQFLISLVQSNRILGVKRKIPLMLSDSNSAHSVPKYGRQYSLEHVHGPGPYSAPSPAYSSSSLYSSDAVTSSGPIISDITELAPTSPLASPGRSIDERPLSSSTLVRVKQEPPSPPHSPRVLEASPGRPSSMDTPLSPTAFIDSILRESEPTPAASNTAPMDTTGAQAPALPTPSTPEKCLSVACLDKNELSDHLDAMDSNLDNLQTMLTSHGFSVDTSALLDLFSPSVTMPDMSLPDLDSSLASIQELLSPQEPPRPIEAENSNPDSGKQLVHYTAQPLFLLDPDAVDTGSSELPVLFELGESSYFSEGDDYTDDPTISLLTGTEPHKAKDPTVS", "experiment": "decrease of HSF1-responsive luciferase luminescence – cell-based, NIH3T3, dose retest, confirmation (AID 2382);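 also: NIH3T3 fibroblasts with HSF1-driven luciferase reporter stressed by proteasome inhibitor MG132; luminescence from HSF1-driven luciferase expression after 8 hours of MG132 stress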", "assay_type": "functional"}, "[13]": {"molecular_target": "Tumor necrosis factor (Homo sapiens, UniProt P01375)", "sequence (P01375 whole entry)": "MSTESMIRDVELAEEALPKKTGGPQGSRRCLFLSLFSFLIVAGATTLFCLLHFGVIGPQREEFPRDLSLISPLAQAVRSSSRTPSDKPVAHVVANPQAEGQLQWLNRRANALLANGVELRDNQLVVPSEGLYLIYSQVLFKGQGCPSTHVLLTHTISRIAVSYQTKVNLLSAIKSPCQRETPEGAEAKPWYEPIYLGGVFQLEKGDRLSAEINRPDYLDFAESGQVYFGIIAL", "experiment": "analog potency on TNFa NF-kB signaling – cell-based, revised, SAR follow-up (AID 2337)", "assay_type": "functional"}, "[14]": {"test_system": "HEK293", "experiment": "cells", "settings": "Homo sapiens"}, "[15]": {"molecular_target": "T4, Microphthalmia-associated transcription factor (Homo sapiens, UniProt O75030)", "T4 sequence (O75030 whole entry)": "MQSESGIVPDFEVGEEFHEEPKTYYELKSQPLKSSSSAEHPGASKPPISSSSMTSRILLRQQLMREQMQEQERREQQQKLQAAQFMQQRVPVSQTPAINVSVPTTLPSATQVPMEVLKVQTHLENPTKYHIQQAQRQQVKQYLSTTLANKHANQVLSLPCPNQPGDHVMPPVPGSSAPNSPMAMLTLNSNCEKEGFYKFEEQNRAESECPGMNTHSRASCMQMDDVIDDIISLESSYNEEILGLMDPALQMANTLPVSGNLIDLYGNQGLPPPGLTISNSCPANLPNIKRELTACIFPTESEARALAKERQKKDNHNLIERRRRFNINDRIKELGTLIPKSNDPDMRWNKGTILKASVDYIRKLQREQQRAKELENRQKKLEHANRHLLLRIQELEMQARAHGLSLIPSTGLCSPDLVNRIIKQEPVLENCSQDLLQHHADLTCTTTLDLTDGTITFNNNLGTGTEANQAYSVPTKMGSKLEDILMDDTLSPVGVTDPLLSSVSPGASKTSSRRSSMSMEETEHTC", "experiment": "reducers of TRPM1 reporter luminescence, concentration series – cell-based, SK-MEL-5, cherry-picked, set 3, MITF inhibitor project, dose response (AID 493073);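 also: SK-MEL-5 melanoma cells with luciferase driven by the MITF target TRPM1 promoter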", "assay_type": "functional"}, "[16]": {"molecular_target": "Peroxisome proliferator-activated receptor gamma/Nuclear receptor coactivator 2 (Homo sapiens, UniProt P37231)", "experiment": "(§1) TR-FRET dose response biochemical High Throughput Screening assay for agonists of the steroid receptor coactivator 2 (SRC-2) recruitment by the peroxisome proliferator-activated receptor gamma (PPAR gamma): non-selective agonists. [Related pubchem assays: 1297, 1032 ]", "assay_type": "functional"}, "[17]": {"molecular_target": "Peroxisome proliferator-activated receptor gamma/Nuclear receptor coactivator 3 (Homo sapiens, UniProt P37231)", "experiment": "as §1, with “3 (SRC-3)” for “2 (SRC-2)”, “1301 (Confirmation screen.), 1048 (Primary screen.)]” for “1297, 1032 ]”", "assay_type": "functional"}, "[18]": {"molecular_target": "Peroxisome proliferator-activated receptor gamma/Nuclear receptor coactivator 1 (Homo sapiens, UniProt P37231)", "experiment": "as §1, with “1 (SRC-1)” for “2 (SRC-2)”, “assays (depositor defined):AID1300, AID1808, AID504735, AID631]” for “assays: 1297, 1032 ]”", "assay_type": "protein assay"}}, "note": "The source made the active and inactive calls."}
{"smiles": "NCC(O)C1CCCCCCC1", "note": "(centres undefined)", "values": [{"measurement": "AC50", "setting": "[1]", "result": "15.8 µM (inconclusive)"}]}
{"smiles": "O=C(N=C1NCCS1)C1CCN(S(=O)(=O)c2cc([N+](=O)[O-])ccc2Cl)CC1", "values": [{"measurement": "IC50", "setting": "[2]", "result": "22 µM (active)"}, {"measurement": "IC50", "setting": "[3]", "result": "52.5 µM (active)"}, {"measurement": "IC50", "setting": "[4]", "result": "3.39 µM (active)"}]}
{"smiles": "NC1=NC(=O)/C(=C\\c2ccc(O)c([N+](=O)[O-])c2)S1", "values": [{"measurement": "AC50", "setting": "[5]", "result": "1.23 µM (active)"}]}
{"smiles": "COc1ccc(NC2CCCN(Cc3cccc4cnccc34)C2)cc1OC", "note": "(centres undefined)", "values": [{"measurement": "IC50", "setting": "[6]", "result": "42.5 µM (active)"}, {"measurement": "IC50", "setting": "[7]", "result": "> 80 µM (inactive)"}]}
{"smiles": "[O-]/[N+](=C\\c1ccccc1)c1ccc(Br)cc1", "values": [{"measurement": "IC50", "setting": "[7]", "result": "22.1 µM (inactive)"}]}
{"smiles": "O=C(Nc1cccc(C(=O)O)c1)Nc1ccccc1Cl", "values": [{"measurement": "AC50", "setting": "[8]", "result": "2.75 µM (active)"}, {"measurement": "AC50", "setting": "[9]", "result": "4.29 µM (active)"}, {"measurement": "AC50", "setting": "[10]", "result": "4.97 µM (active)"}]}
{"smiles": "COCCn1c(C)cc(C(=O)COC(=O)c2ccccc2Br)c1C", "values": [{"measurement": "IC50", "setting": "[11]", "result": "11.3 µM (active)"}, {"measurement": "EC50", "setting": "[12]", "result": "< 160 nM (active)"}, {"measurement": "IC50", "setting": "[13]", "result": "< 39.1 nM (active)"}, {"measurement": "IC50", "setting": "[14]", "result": "> 20 µM (inactive)"}, {"measurement": "AC50", "setting": "[15]", "result": "1.14 µM (active)"}]}
{"smiles": "O=C1c2ccccc2-c2cccc(NS(=O)(=O)c3ccc(C(F)(F)F)cc3)c21", "values": [{"measurement": "EC50", "setting": "[16]", "result": "> 79.4 µM (not active)"}, {"measurement": "EC50", "setting": "[17]", "result": "> 79.4 µM (not active)"}, {"measurement": "EC50", "setting": "[18]", "result": "> 79.4 µM (inactive)"}]}
